Counter-ions that a name gives are not always drawn.
Legend:
[1] = test system: excretion of phenol red from the mouse trachea; assay: Excretion amount of phenol red from the mouse trachea (expectorant effects); assay type: in vivo, mice; settings: trachea wash in 2 mL 5% NaHCO3, absorbance at 546 nm, n = 10
Experimental: 2.3 Effects on the Excretion Amount of Phenol Red from the Mouse Trachea (Expectorant Effects)
40 mice were taken and randomly divided into 4 groups as described in 2.1. The positive control group received ambroxol hydrochloride tablets at 20 mg/kg. After the mice were acclimatized for 3 days, they were administered intragastrically once a day continuously for 7 days. The administration volume was 20 mL/kg, and 30 min after the last administration, each mouse was intraperitoneally injected with 5% phenol red solution at 0.2 mL/20 g, sacrificed after 30 min, fixed supine, neck straightened, surrounding connective tissue stripped to expose the trachea, and dissected to separate out a section of trachea that was from below the thyroid cartilage to the bifurcation of the trachea. Each trachea section was put into a test tube pre-filled with 2 mL of 5% NaHCO3 solution, ultrasonically washed for 15 min to release the tracheal phenol red out from the trachea completely, and centrifuged at 1000 r/min for 15 min to obtain a supernatant. The absorbance values of the supernatant at 546 nm were measured by an enzyme reader, and converted into the phenol red content by being compared with standard curves of phenol red.
(§1) Experimental data were analyzed using SPSS17.0 software, and expressed as means±standard deviations (x±SD). When the homogeneity of variance was complied, LSD test was used to make comparison between groups; and when the homogeneity of variance was not complied, Dunnett's T3 test was used to make comparison between groups. A P-value less than 0.05 means a statistical significance, and a P-value less than 0.01 means a significant statistical significance.

[2] = test system: allergic asthma in guinea pigs; assay: Allergic asthma in guinea pigs (egg protein sensitisation and spray); assay type: in vivo; settings: 1% egg protein spray, capped at 6 min
Experimental: 2.4 Effects on the Allergic Asthma in Guinea Pigs (Effects for Relieving Asthma)
40 guinea pigs, male and female each in half, having body weight of 250-280 g, were randomly divided into 4 groups as described in 2.1. The positive control group received aminophylline tablets at 100 mg/kg. After the guinea pigs were acclimatized for 3 days, they received 10% fresh egg protein solution at 10 mL/kg through an intraperitoneal injection. From the 15th day, it began to administer intragastrically to each group at 10 mL/kg. The negative control group received equal volume of 0.5% CMC-Na once per day continuously for 7 days. From the 17th day, it began to let the guinea pigs inhale 1% egg protein solution, by spraying through an asthma-inducing, for 15 min to elicit at 1-day intervals totally for 3 times. After the last irritation, the asthma latency in the guinea pigs, that is, the time from the beginning of spray to asthma attacks (cough, dyspnea, restlessness, convulsions, falling down or death), was recorded. For the guinea pigs which had not appeared asthma attack after 6 min, their latency was taken as 6 min.
as §1

[3] = test system: cough in guinea pigs induced by citric acid spray; assay: Cough in guinea pigs induced by citric acid spray (antitussive effects); assay type: in vivo; settings: n = 10; for Number of coughs per 5 min: 17.5% citric acid spray; for Latency: cough latency, 17.5% citric acid spray 1 min, latency capped at 5 min
Experimental: 2.2 Effects on the Cough in Guinea Pigs Induced by Citric Acid Spray (Antitussive Effects)
Healthy and sensitive guinea pigs (a pre-selection was carried out one day before the experiments, to exclude the guinea pigs which coughed less than 10 times during the five-minute period), having body weight of 250-280 g, male and female each in half were taken, and randomly divided into groups as described in 2.1. After the guinea pigs were acclimatized for 3 days, they were administered intragastrically once a day continuously for 5 days, and at the fifth day 1 hour after the administration, the guinea pigs were placed inside a 3 L sealed glass bell jar where 17.5% citric acid was sprayed into at constant pressure for 1 minute by an ultrasonic nebulizer. The cough latency and the number of coughs of the guinea pigs during the 5-minute period were recorded though observation. For guinea pigs whose latency exceeded 5 min, it was recorded as 5 min.
as §1

[4] = test system: cough response of mice induced by concentrated ammonia; assay: Cough response of mice induced by concentrated ammonia (antitussive effects); assay type: in vivo; settings: n = 10; for Number of coughs per 2 min: 25% ammonia spray; for Latency: cough latency, 25% ammonia spray 15 s, 1 h after last dose
Experimental: 2.1 Effects on the Cough Response of Mice Induced by Concentrated Ammonia (Antitussive Effects)
40 mice were taken and randomly divided into four groups, namely a negative control group (0.5% of CMC-Na: prepared before tests by weighting 5 g of CMC-Na into a beaker, adding 800 mL pure water thereto, stirring, heating, boiling, and cooling down, then using a measuring cylinder to adjust the volume to 1000 mL, to obtain the transparent, viscous liquid with a concentration of 0.5% for the preparation of test samples and solvent control. Such liquid prepared once and can be used for 5-7 days); a positive control group of codeine phosphate tablets at 60 mg/kg; Trezastilbenoside high dose (300 mg/kg) group; and Trezastilbenoside low dose (150 mg/kg) group. For each administration group, 0.5% CMC-Na was used for dissolving and diluting to a corresponding concentration. After the mice were accilimatized for 3 days, they were administered intragastrically once a day continuously for 7 days. The administration volume was 20 mL/kg, and 1 h after the last administration, the mice were placed one by one into a closed and dry container where the mist of 25% of concentrated ammonia was introduced into by spraying at constant pressure for 15 seconds to induce cough, then the cough latency and the number of coughs in mice during the 2-minute period were recorded thought observation.
as §1

[5] = test system: ears swelling of mice induced by xylene; assay: Ears swelling of mice induced by xylene (anti-inflammatory effects); assay type: in vivo; settings: for Swelling degree: xylene 20 μL on right ear, 30 min, weight difference of 6 mm ear pieces
Experimental: 2.5 Effects on Ears Swelling of Mice Induced by Xylene (Anti-Inflammatory Effects)
40 mice were taken and randomly divided into 4 groups of 10 mice each as described in 2.1, in which intragastric administration was conducted at 10 mL/kg, the positive control group received dexamethasone acetate tablets at 5 mg/kg, and the negative control group received equal volume of 0.5% CMC-Na, once per day continuously for 7 days. At the night before the experiments, the mice were fasted but had access to water for 12 h. At the 7th day, 30 min after the administration, the mice were evenly smeared with the inflammatory agent xylene (20 μL for each mouse) at the front and back sides of right ears to cause inflammation, and killed by cervical dislocation after 30 min, with their both ears cut along the baseline of the auricle. The ear pieces of the same part of the both ears were punched out with a hole punch of 6 mm diameter, and weighted by an analytical balance. The difference between the weights of the two ears was the swelling degree (mg), and the swelling inhibition rate (%) was calculated. Swelling inhibition rate=(Average swelling degree of the control group−Average swelling degree of the administration group)/Average swelling degree of the control group 2.6 Statistical Methods:
as §1

[6] = safety researches, background statement; cited from earlier work
[7] = safety researches, background statement; cited from earlier work; remark: listed apart in the source
[8] = 60 mg/kg intragastric once a day for 5 days
[9] = 60 mg/kg intragastric once a day for 7 days
[10] = 150 mg/kg intragastric once per day for 7 days
[11] = 300 mg/kg intragastric once per day for 7 days
[12] = 150 mg/kg intragastric once a day for 5 days
[13] = 300 mg/kg intragastric once a day for 5 days
[14] = 150 mg/kg intragastric once a day for 7 days
[15] = 300 mg/kg intragastric once a day for 7 days

## Nc1c(Br)cc(Br)cc1CN[C@H]1CC[C@H](O)CC1 [Ambroxol hydrochloride tablet, Ambroxol hydrochloride, reference compound]
[1]; ambroxol hydrochloride 20 mg/kg (positive control) intragastric once a day for 7 days
  Phenol red concentration: 4.23 ± 1.34 µg/mL

## Cn1c(=O)c2[nH]cnc2n(C)c1=O [Aminophylline tablet, Aminophylline, reference compound]
[2]; 100 mg/kg intragastric once per day for 7 days
  Latency: 94.23 ± 31.55 s

## COc1ccc2c3c1O[C@H]1[C@@H](O)C=C[C@H]4[C@@H](C2)N(C)CC[C@@]341 [Codeine phosphate tablets, Codeine phosphate, reference compound]
[3]; [8]
  Number of coughs per 5 min: 7.83 ± 3.83
  Latency: 130.48 ± 59.34 s
[4]; [9]
  Number of coughs per 2 min: 15.13 ± 7.83
  Latency: 56.23 ± 16.46 s

## CC(=O)OCC(=O)[C@@]1(O)[C@H](C)C[C@H]2[C@@H]3CCC4=CC(=O)C=C[C@]4(C)[C@@]3(F)[C@@H](O)C[C@@]21C [Dexamethasone acetate tablet, Dexamethasone acetate, reference compound]
[5]; 5 mg/kg intragastric once per day for 7 days
  Swelling degree: 1.24 ± 0.67 mg
[5]; Mus musculus, po, 168 h, 5 mg/kg intragastric once per day for 7 days, relative to average swelling degree of control group, read-out: Swelling inhibition rate (%)
  inhibition at 5 mg/kg: 65.9%

## OC[C@H]1O[C@@H](Oc2cc(/C=C/c3cc(O)cc(O)c3)ccc2O)[C@H](O)[C@@H](O)[C@@H]1O [Trezastilbenoside]
[5]; [10]
  Swelling degree: 3.12 ± 2.52 mg
[5]; [11]
  Swelling degree: 2.21 ± 1.45 mg
[5]; Mus musculus, po, 168 h, 150 mg/kg intragastric once per day for 7 days, relative to average swelling degree of control group, read-out: Swelling inhibition rate (%)
  inhibition at 150 mg/kg: 14.3%
[5]; Mus musculus, po, 168 h, 300 mg/kg intragastric once per day for 7 days, relative to average swelling degree of control group, read-out: Swelling inhibition rate (%)
  inhibition at 300 mg/kg: 39.3%
[3]; [12]
  Number of coughs per 5 min: 13.88 ± 5.25
  Latency: 104.35 ± 45.23 s
[3]; [13]
  Number of coughs per 5 min: 9.63 ± 3.20
  Latency: 116.78 ± 53.96 s
[2]; [10]
  Latency: 69.28 ± 21.20 s
[2]; [11]
  Latency: 83.68 ± 36.13 s
[1]; [14]
  Phenol red concentration: 3.28 ± 1.20 µg/mL
[1]; [15]
  Phenol red concentration: 3.88 ± 1.43 µg/mL
[6]
  Toxic side reactions and death in acute toxicity tests: no toxic side reactions and death occurred
[4]; [14]
  Number of coughs per 2 min: 25.88 ± 9.25
  Latency: 41.23 ± 13.67 s
[4]; [15]
  Number of coughs per 2 min: 19.63 ± 10.27
  Latency: 48.56 ± 16.53 s
[7]
  Chromosome aberrations or mutagenesis in the genetic test: no chromosome aberrations or mutagenesis were found
